According to US20240116985A1, “STAPLED PEPTIDES AND METHODS THEREOF” (priority 2020, published 2024):
pIC50: −log10 of the molar value.

Target: T1, full-length beta-Catenin (Uniprot ID P35222) (Homo sapiens, UniProt P35222)
T1 construct: 10 nM full-length beta-Catenin (Uniprot ID P35222)
T1 sequence (P35222 1-781): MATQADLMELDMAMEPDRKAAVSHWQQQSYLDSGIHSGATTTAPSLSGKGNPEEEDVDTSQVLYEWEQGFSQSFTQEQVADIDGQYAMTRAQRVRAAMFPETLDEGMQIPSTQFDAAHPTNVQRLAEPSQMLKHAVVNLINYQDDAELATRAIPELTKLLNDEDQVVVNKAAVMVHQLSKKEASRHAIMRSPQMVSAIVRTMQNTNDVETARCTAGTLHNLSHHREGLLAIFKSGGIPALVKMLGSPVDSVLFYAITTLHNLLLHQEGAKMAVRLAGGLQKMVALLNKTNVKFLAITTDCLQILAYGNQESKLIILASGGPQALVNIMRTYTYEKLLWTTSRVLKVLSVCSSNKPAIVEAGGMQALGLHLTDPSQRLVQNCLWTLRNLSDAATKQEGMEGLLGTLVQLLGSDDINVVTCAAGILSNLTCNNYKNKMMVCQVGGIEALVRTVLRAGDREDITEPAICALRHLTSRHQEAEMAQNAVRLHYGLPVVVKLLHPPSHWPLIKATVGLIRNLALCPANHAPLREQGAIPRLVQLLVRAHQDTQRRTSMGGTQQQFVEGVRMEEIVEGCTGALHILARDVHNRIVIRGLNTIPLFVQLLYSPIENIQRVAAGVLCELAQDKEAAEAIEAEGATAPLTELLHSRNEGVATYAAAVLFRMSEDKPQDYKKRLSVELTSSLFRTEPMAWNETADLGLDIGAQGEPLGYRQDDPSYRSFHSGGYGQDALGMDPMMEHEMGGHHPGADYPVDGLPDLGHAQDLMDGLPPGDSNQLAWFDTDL
Assay: Fluorescence polarization IC50 (beta-catenin / 5FAM-TCF4 10-53 competition)
Format: binding
Conditions: fluorescence polarization; read-out: beta-Catenin FP IC50

Structure (SMILES)	pIC50
CC(=O)N1CCC[C@]12CC=CCCCC1(CCCC=CCCCOC(=O)N3CC[C@@](C(=O)N[C@@H](Cc4ccsc4)C(=O)N[C@@H](Cc4csc5ccccc45)C(=O)N[C@@H](C)C(N)=O)(C3)NC(=O)[C@H](CC(N)=O)NC(=O)[C@H](Cc3ccccc3)NC(=O)[C@H](C)NC(=O)C(C)(C)NC(=O)[C@H]([C@@H](C)O)NC(=O)[C@H](CC(N)=O)NC1=O)NC(=O)[C@H](CC(C)(C)C)NC(=O)[C@H](CC(=O)O)NC2=O (stereo partly drawn) [I-2411, Ac-PL3-Asp-Npg-B5-Asn-Thr-Aib-Ala-Phe-Asn-PyrS2-3Thi-BztA-Ala-NH2]	6.85
CC(=O)N1CCC[C@]12CC=CCCCC1(CCCC=CCCCOC(=O)N3CC[C@@](C(=O)N[C@@H](Cc4ccsc4)C(=O)N[C@@H](Cc4csc5ccccc45)C(=O)N[C@@H](Cc4ccccc4)C(N)=O)(C3)NC(=O)[C@H](CC(N)=O)NC(=O)[C@H](Cc3ccccc3)NC(=O)[C@H](C)NC(=O)C(C)(C)NC(=O)[C@H]([C@@H](C)O)NC(=O)[C@H](CC(N)=O)NC1=O)NC(=O)[C@H](CC(C)(C)C)NC(=O)[C@H](CC(=O)O)NC2=O (stereo partly drawn) [I-2412, Ac-PL3-Asp-Npg-B5-Asn-Thr-Aib-Ala-Phe-Asn-PyrS2-3Thi-BztA-Phe-NH2]	6.57
CC(=O)N1CCC[C@]12CC=CCCCC1(CCCC=CCCCOC(=O)N3CC[C@@](C(=O)N[C@@H](Cc4ccccc4)C(=O)N[C@@H](Cc4csc5ccccc45)C(=O)N[C@@H](CCCCN)C(N)=O)(C3)NC(=O)[C@H](CC(C)C)NC(=O)[C@H](Cc3ccccc3)NC(=O)[C@H](C)NC(=O)[C@H](CCCN3CCOCC3)NC(=O)[C@H](CCC(N)=O)NC(=O)[C@H](CC(=O)O)NC1=O)NC(=O)[C@H](CC1CCCCC1)NC(=O)[C@H](CC(N)=O)NC2=O (stereo partly drawn) [I-2427, Ac-PL3-Asn-Cha-B5-Asp-Gln-MorphNva-Ala-Phe-Leu-PyrS2-Phe-BztA-Lys-NH2]	6.12
CC(=O)N1CCC[C@]12CC=CCCCC1(CCCC=CCCCOC(=O)N3CC[C@@](C(=O)N[C@@H](Cc4ccccc4)C(=O)N[C@@H](Cc4csc5ccccc45)C(=O)N[C@@H](CCCN4CCOCC4)C(N)=O)(C3)NC(=O)[C@H](CC(C)C)NC(=O)[C@H](Cc3ccccc3)NC(=O)[C@H](C)NC(=O)[C@H](CCCCNC(C)C)NC(=O)[C@H](CCC(N)=O)NC(=O)[C@H](CC(=O)O)NC1=O)NC(=O)[C@H](CC1CCCCC1)NC(=O)[C@H](CC(N)=O)NC2=O (stereo partly drawn) [I-2428, Ac-PL3-Asn-Cha-B5-Asp-Gln-iPrLys-Ala-Phe-Leu-PyrS2-Phe-BztA-MorphNva-NH2]	6.40

Continued by rising pIC50, values first:

pIC50	Structure (SMILES)
5.47	CC(=O)N1CCC[C@]12CC=CCCCC1(CCCC=CCCCOC(=O)N3CC[C@@](C(=O)N[C@@H](Cc4ccccc4)C(=O)N[C@@H](Cc4csc5ccccc45)C(=O)N[C@@H](CCCCN)C(N)=O)(C3)NC(=O)[C@H](CC(C)C)NC(=O)[C@H](Cc3ccccc3)NC(=O)[C@H](C)NC(=O)[C@H](CO)NC(=O)[C@H](CCC(N)=O)NC(=O)[C@H](CC(=O)O)NC1=O)NC(=O)[C@H](CC1CCCCC1)NC(=O)[C@H](CC(N)=O)NC2=O (stereo partly drawn) [I-2422, Ac-PL3-Asn-Cha-B5-Asp-Gln-Ser-Ala-Phe-Leu-PyrS2-Phe-BztA-Lys-NH2]
5.67	CC(=O)N1CCC[C@]12CC=CCCCC1(CCCC=CCCCOC(=O)N3CC[C@@](C(=O)N[C@@H](Cc4ccccc4)C(=O)N[C@@H](Cc4csc5ccccc45)C(=O)N[C@@H](CCCCN)C(N)=O)(C3)NC(=O)[C@H](CC(C)C)NC(=O)[C@H](Cc3ccccc3)NC(=O)[C@H](C)NC(=O)[C@H](CC(N)=O)NC(=O)[C@H](CCC(N)=O)NC(=O)[C@H](CC(=O)O)NC1=O)NC(=O)[C@H](CC1CCCCC1)NC(=O)[C@H](CC(N)=O)NC2=O (stereo partly drawn) [I-2420, Ac-PL3-Asn-Cha-B5-Asp-Gln-Asn-Ala-Phe-Leu-PyrS2-Phe-BztA-Lys-NH2]
